22 compounds from PubChem BioAssay AID720669 (NMMLSC, 2013) can be followed below.

Active and inactive are the calls of the source.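 Rule for the calls: active = visibly stopped the calcineurin reporter band on a blot from moving down to a smaller size, judged by eye; inactive = reporter band movement visibly unaltered.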

The test system of this assay is calcineurin (human, NFAT-based CaNAR1 reporter dephosphorylation). As to the kind of experiment: inhibitors of CaNAR1 reporter dephosphorylation – TALL-104 cells, western blot, CherryPick01, mechanism study for lytic granule exocytosis inhibitor project (AID 720669). The note with it: CaNAR1 dephosphorylation shift, at 12 µM, hits give high values. Background: In western blotting, separated proteins are transferred to a membrane and probed.
As for `CC(C)(c1ccccc1)c1ccc(OCC(O)CNC2CCN(Cc3ccccc3)CC2)cc1` (configuration not stated), the inhibition (as a rule, the drop in the measured response relative to a control, in per cent) is 0% (inactive).

`O=C(Cn1sc2ccccc2c1=O)Nc1ccc(F)cc1`: the inhibition was 0% (inactive). `CC1COCC(C)N1C1=C(Cl)C(=O)c2ccccc2C1=O` (configuration not stated): the inhibition was 100%. Under `O=C(Cn1sc2ccccc2c1=O)NC12CC3CC(CC(C3)C1)C2` stands 0% (inactive). As to `O=CNc1cc(-c2ccsc2)cn2c(-c3ccccc3)cnc12`, the inhibition was 0% (inactive). Under `CN(C)CCNC(=O)c1ccc(-c2cn3c(-c4ccc(Oc5ccccc5)cc4)cnc3cn2)cc1` stands 0% (inactive); under `O=C(CN1C(=O)/C(=C\c2cccc(Br)c2)Oc2ccccc21)NCCCN1CCOCC1`, 0% (inactive). To `Cc1ccc(Nc2nc(NCc3ccco3)c3ccccc3n2)cc1` belongs 0% (inactive); to `O=c1c2ccc(F)cc2sn1-c1ccccc1`, 0% (inactive); to `COC(=O)c1c(NC(=O)c2nc3ccccc3s2)sc2c1CC(C)(C)NC2(C)C`, 0% (inactive). To `CCCCC[C@@H](C)N1C[C@@H](COCc2ccccc2)Oc2cc(N3CC[C@@H](N(C)C)C3)ccc2S1(=O)=O` belongs 0% (inactive); to `CCCCC[C@@H](C)N1C[C@H](COCc2ccccc2)Oc2cc(N3CC[C@@H](N(C)C)C3)ccc2S1(=O)=O`, 0% (inactive); to `COc1ccccc1CNc1nc(NCc2ccc(C(C)C)cc2)c2sccc2n1`, 0% (inactive). On to `COc1ccc(-c2cc(NC=O)c3ncc(-c4ccccc4)n3c2)cc1OC`, for which the inhibition was 0% (inactive). Under `CCN(CC)CCCNc1ccc(-c2nnc(-c3ccc(OCC(C)C)cc3)o2)cn1` stands 0% (inactive); under `COc1ccc(-c2cc(NC=O)c3ncc(-c4cccc(OC)c4)n3c2)cc1`, 0% (inactive). Under `COc1ccc(-n2sc3ccccc3c2=O)cc1` stands 0% (inactive). For `O=c1c2ccccc2sn1-c1ccccc1`, the inhibition was 0% (inactive). Under `COc1ccc(N2C(=O)CC(Sc3nnc(-c4ccccc4)o3)C2=O)cc1` (configuration not stated) stands 0% (inactive); under `CCCCC[C@@H](C)N1C[C@@H](COCc2ccccc2)Oc2cc(N3CC[C@H](N(C)C)C3)ccc2S1(=O)=O`, 0% (inactive).

`Cc1ccc(S(=O)(=O)n2ccc3c(OCCOCCNCc4ccc(F)cc4)cccc32)cc1`: the inhibition is 0% (inactive). On to `CC1=NOC(=O)/C1=C/c1ccc(-c2ccc(Cl)cc2)o1`, for which the inhibition is 0% (inactive).
